Source: patent US6994981B2, “Modulators of paraptosis and related methods” (The Buck Institute, priority 2002, dated 2006)
No end group written: not given here.

Experiments:
[1] = tested on: striatal, cortical, and hippocampal neurons; assay: SP-induced cell death in primary striatal, cortical and hippocampal neurons, trypan blue viability and staining; assay type: cell-based, rat
Experimental: Rat neuronal primary cell cultures were also used to assay for inducers and inhibitors of paraptosis. Briefly, primary striatal, cortical and hippocampal cultures were prepared from 17-day-old Sprague-Dawley rat embryos (B&K). The tissue was dissected, minced and trypsinized for five minutes using 0.25% trypsin (Cell Grow). After the addition of 10% horse serum (Life Technologies) to inhibit the trypsin, the cell suspension was triturated 15–20 times with a 10 ml syringe and centrifuged for five minutes at 800×g. The pellet was resuspended in MEM-PAK (UCSF Cell Culture facility), supplemented with 2.02 gm glucose, 2 mM GLUTAMAX™ (Life Technologies) and penicillin/streptomycin (100 U/ml). The suspension was filtered through a […] cell strainer and the final culture medium contained 5% horse serum. Subsequently, 3-4×10^5 cells per Cm^2 were seeded onto either poly-D-lysine precoated 8-well chamber slides (Becton-Dickson Labware) or 96 well plates precoated with […] of poly-D-lysine (Sigma) in water. After 30 minutes of incubation time, unattached cells were removed together with the medium and replaced with glucose enriched MEM-PAK plus 5% horse serum. The cultures were then incubated at 37° C. in 95% air 5% carbon dioxide with 95% humidity. Cultures were used for experiments between day 1 and day 7 when glial contamination was at a minimum.
Primary neuronal cells were prepared as described in Example I. SP (SIGMA) at a concentration of 0.1 nM–100 μM was added 24–48 hrs after seeding, in the presence of 2.5% horse serum. When the cultures were maintained for more than 5 days, 10 μM cytosine arabinoside was added for 24 hours, beginning 3 days after plating the cells. Viability was quantified by trypan blue staining of the total cell population.
The following compounds were added at the same time as SP in the indicated experiments: 5 nM L-732, 138; 1 nM L-733,060; 1 μg/ml Actinomycin D or 1 μg/ml Cycloheximide. All of these compounds were obtained from SIGMA. The caspase inhibitors zVAD.fmk and BAF were added at 50 μM and obtained from Enzyme System Products, Livermore, Calif.
Either neuronal primary cultures or human embryonic kidney 293T cells were fixed with 4% paraformaldehyde and stained with 0.5 μg/ml DAPI (Molecular Probes) or Hoechst(SIGMA). […]
(§1) The protein kinase inhibitors were added 30 min before SP exposure at the following concentrations: 10 μM Rp-8-Br-cAMPS (adenosin 3′,5′-cyclic monophosphorothioate, 8-bromo-, Rp-isomer, sodium salt) which is a PKA inhibitor; 50 nM Calphostin C, which is a PKC inhibitor; 10 μM PD 98059 which is a MAPKK (MEK) inhibitor. These compounds were obtained from Calbiochem. Viability was quantified by trypan blue staining of the total cell population.

[2] = biological target: neurokinin-1 receptor (NK1R) (Rattus norvegicus, UniProt P14600); conditions: cited from earlier work
[3] = tested on: IGFIR-IC transfected 293T cells; assay: Inhibition of IGFIR-IC induced paraptosis in transfected 293T cells, LDH assay; assay type: cell-based, human
Experimental: Paraptosis was induced in 293T cells by expressing the intracellular domain of the insulin-like growth factor I receptor (IGFIR-IC) in these cells using transient transfection as described above.
(§2) Test compounds were added to IGFIR-IC transfected 293T cells at the time of transfection.
The TRAF2 dominant negative mutant contains a deletion of the amino terminal 271 amino acids of the protein. The ratio of IGFIR-IC:AIP1 and IGFIR-IC:TRAF2DN was 1:3. […] Antisense oligonucleotide constructs for JNK1 or JNK2 (50–100 nM) were transfected into 293T cells one day before transfection with the IGFIR-IC construct. For all inhibition assays, cell viability was measured using the LDH assay.

[4] = tested on: 293T cells transfected with NK1R; assay: SP-induced, NK1R-mediated cell death in 293T cells transfected with NK1R, trypan blue and staining; assay type: cell-based, human
Experimental: (§3) Human embryonic kidney 293T cells were grown as described in Example I. Transient transfection was performed using Superfect (Qiagen) as described by the manufacturer. Briefly, 2×10^5 cells/well were seeded into 35 mm wells 16 hr prior to transfection. Superfect:DNA complexes were added at a 5 μl:2 μg ratio for 3 hr; then the medium was replaced and after 24 hr SP was added. At 24–48 hr after addition of SP cell death was quantified as follows: the media containing floating cells were collected and centrifuged 10 min at 2000×g, the pellet was resuspended in PBS/trypan blue and the cells were counted using a hematocytometer. When other compounds were used, they were added at the same time as SP: zVAD.fmk or BAF was added at 50 μM and obtained from Enzyme System Products, Livermore, Calif.
Briefly, the method entailed cloning the full-length (1.2 kb) NK1R cDNA (Genbank Accession No. M31477) by RT-PCR from adult rat hippocampal RNA into the XbaI/EcoRI sites of the vector pcDNA3.1 (Invitrogen), using the following oligonucleotides: forward 5′[…] 3′ (SEQ ID NO:2); reverse 5′[…] 3′ (SEQ ID NO:3).
Cells were stained according to the manufacturer's instructions (Clontech). Briefly, cellswere washed with binding buffer and incubated with FITC-Annexin-V or EGFPAnnexin-V for 5–10 min and fixed with 4% paraformaldehyde.
Cells were fixed 10 min with 4% paraformaldehyde and stained according to the manufacturer's instructions (Promega).
as §1

ERK-1/2 = assay: Western blot of ERK-1/2 phosphorylation in 293T cells expressing NK1R; assay type: cell-based, human; conditions: 10 μM
Experimental: For the transfected 293T cells, cells were washed with cold PBS after incubation with SP the time indicate and homogenized on lysis buffer (150 mM NaCl, 1% Triton X-100, 50 mM Tris HCL pH8.0). Cytoplasmic extracts were collected after 10 min centrifugation at 14,000 rcf. Total amount of protein was quantified by Bradford assay and electrophoresis of equal amounts of total protein was performed on SDS-polyacrylamide gels. Separated proteins were transferred to polyvinylidene fluoride membranes at 4° C. for Western blot analysis. Membranes were probed with a 1:1000 dilution of anti-ERK-1/2 or anti phospho-ERK-1/2 (BioSource). The blots were incubated in a horseradish peroxidase coupled secondary antibody for 1 h followed by enhanced chemiluminescence detection of the proteins with […]™ ECL detection (Amersham, Arlington Heights, Ill.). For striatal neurons, total ERK-1/2 was immunoprecipitated using superparamagnetic Microbeads conjugated to protein A, following manufacture's instructions (MACS, Miltenyi Biotec), and then developed by Western blot against either anti-ERK-1/2 or anti phospho-ERK-1/2.

paraptosis = conditions: cited from earlier work
[5] = tested on: paraptosis induced by caspase 7, caspase 8 or caspase 9; assay: Inhibition of paraptosis induced by caspases; assay type: cell-based
Experimental: as §2

[6] = tested on: caspase-8 transfected cells; assay: Apoptosis induced by over-expression of caspase-8 in 293T cells; assay type: cell-based, human; conditions: caspase inhibitors at 50 μM
Experimental: as §3

SP-induced paraptosis = assay: Inhibition of SP-induced paraptosis, cells not specified; assay type: cell-based; conditions: concentration not given

Sequence of neurokinin-1 receptor (NK1R) (P14600 whole entry): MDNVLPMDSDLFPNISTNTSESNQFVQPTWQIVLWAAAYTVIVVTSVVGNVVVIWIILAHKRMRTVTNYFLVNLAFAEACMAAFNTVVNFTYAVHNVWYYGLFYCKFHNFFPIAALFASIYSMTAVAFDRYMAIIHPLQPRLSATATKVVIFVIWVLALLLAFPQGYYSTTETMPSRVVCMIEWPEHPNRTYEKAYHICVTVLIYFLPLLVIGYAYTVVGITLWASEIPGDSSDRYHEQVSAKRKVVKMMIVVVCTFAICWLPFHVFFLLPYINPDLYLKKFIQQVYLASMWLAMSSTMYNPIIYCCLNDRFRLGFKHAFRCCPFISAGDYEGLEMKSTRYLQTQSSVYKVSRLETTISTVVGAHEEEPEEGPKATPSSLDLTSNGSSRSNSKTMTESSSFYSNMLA

For “SP 6–11: truncated form of SP containing amino acids 6 through 11 of the SP polypeptide (QFFGLM; ends and bridges not checked)”, the “induction of cell death by NK1R agonists” value ([1]; compared with SP) is listed as “able to induce cell death as well as SP” and the “affinity for NK1R” value [2] is listed as “good affinity”.

In the case of `COc1cccc(-c2cc(=O)c3ccccc3o2)c1N` [PD 98059], the “effect on IGFIR-induced paraptosis” value ([3]; concentration not given) is reported as “not blocked”, the “effect on neuronal cell death in response to SP” value ([1]; added 30 min before SP: 10 μM PD 98059, 50 nM Calphostin C, 10 μM Rp-8-Br-cAMPS) is reported as “completely blocked” and the “effect on non-neuronal NK1R-mediated pcd” value ([4]; 10 μM) is reported as “inhibited”. The “effect on phosphorylation of ERK-1/2” value (ERK-1/2) was “effectively reduced”.

For `COC(=O)CC(NC(=O)OC(C)(C)C)C(=O)CF` (stereo not drawn) [BAF, Box-aspartyl.fmk], the “effect of caspase inhibitors on paraptosis” value (paraptosis) is listed as “lack of effect”, the “inhibition of paraptosis induction by caspase-7 and caspase-8” value [5] is listed as “subject to inhibition” and the “effect on SP-induced cell death in neurons” value ([1]; caspase inhibitors at 50 μM) is listed as “not inhibited”. For the same molecule, the “effect on apoptosis induced by over-expression of caspase-8” value [6] was “completely abolished” and the “effect on NK1R-mediated cell death in 293T cells” value ([4]; caspase inhibitors at 50 μM) was “lack of effect”.

B1: p35: caspase inhibitor (protein, UniProt P08160 1-299, looked up)
Early 35 kDa protein: MCVIFPVEIDVSQTIIRDCQVDKQTRELVYINKIMNTQLTKPVLMMFNISGPIRSVTRKNNNLRDRIKSKVDEQFDQLERDYSDQMDGFHDSIKYFKDEHYSVSCQNGSVLKSKFAKILKSHDYTDKKSIEAYEKYCLPKLVDERNDYYVAVCVLKPGFENGSNQVLSFEYNPIGNKVIVPFAHEINDTGLYEYDVVAYVDSVQFDGEQFEEFVQSLILPSSFKNSEKVLYYNEASKNKSMIYKALEFTTESSWGKSEKYNWKIFCNGFIYDKKSKVLYVKLHNVTSALNKNVILNTIK
In the case of B1, the “effect of caspase inhibitors on paraptosis” value (paraptosis) is listed as “lack of effect” and the “inhibition of paraptosis induction by caspase-7 and caspase-8” value [5] is listed as “subject to inhibition”.

B2: AIP-1: Alg-2 interacting protein 1, co-transfected with the IGFIR-IC construct (protein, UniProt Q8WUM4 2-868, looked up)
Programmed cell death …: ATFISVQLKKTSEVDLAKPLVKFIQQTYPSGGEEQAQYCRAAEELSKLRRAAVGRPLDKHEGALETLLRYYDQICSIEPKFPFSENQICLTFTWKDAFDKGSLFGGSVKLALASLGYEKSCVLFNCAALASQIAAEQNLDNDEGLKIAAKHYQFASGAFLHIKETVLSALSREPTVDISPDTVGTLSLIMLAQAQEVFFLKATRDKMKDAIIAKLANQAADYFGDAFKQCQYKDTLPKEVFPVLAAKHCIMQANAEYHQSILAKQQKKFGEEIARLQHAAELIKTVASRYDEYVNVKDFSDKINRALAAAKKDNDFIYHDRVPDLKDLDPIGKATLVKSTPVNVPISQKFTDLFEKMVPVSVQQSLAAYNQRKADLVNRSIAQMREATTLANGVLASLNLPAAIEDVSGDTVPQSILTKSRSVIEQGGIQTVDQLIKELPELLQRNREILDESLRLLDEEEATDNDLRAKFKERWQRTPSNELYKPLRAEGTNFRTVLDKAVQADGQVKECYQSHRDTIVLLCKPEPELNAAIPSANPAKTMQGSEVVNVLKSLLSNLDEVKKEREGLENDLKSVNFDMTSKFLTALAQDGVINEEALSVTELDRVYGGLTTKVQESLKKQEGLLKNIQVSHQEFSKMKQSNNEANLREEVLKNLATAYDNFVELVANLKEGTKFYNELTEILVRFQNKCSDIVFARKTERDELLKDLQQSIAREPSAPSIPTPAYQSSPAGGHAPTPPTPAPRTMPPTKPQPPARPPPPVLPANRAPSATAPSPVGAGTAAPAPSQTPGSAPPPQAQGPPYPTYPGYPGYCQMPMPMGYNPYAYGQYNMPYPPVYHQSPGQAPYPGPQQPSYPFPQPPQQSYYPQQ
With B2 the “inhibition of IGFIR-IC induced paraptosis” value ([3]; co-transfected with the IGFIR-IC construct, ratio 1:3) was “able to inhibit IGFIR-IC induced paraptosis” and the “effect on SP-induced paraptosis” value (SP-induced paraptosis) was “can be inhibited”.
